Results reported in patent publication US11098027B2, “Therapeutic heterocyclic compounds” (Gilead Sciences, Inc., priority 2018, dated 2021).

Biological target: T1, IDO1 (Homo sapiens, UniProt P14902)
T1 construct: HeLa cells were treated with a test compound in the presence of IFNγ, which induces IDO1 expression; host or cells: H1-HeLa cells, IDO1 induced with IFNγ
Experiment: Cell-based (HeLa) assay for measurement of IDO1 inhibition (kynurenine levels in supernatant)
Conditions: H1-HeLa cells, IDO1 induced with IFNγ, 48 hour incubation, kynurenine read by absorbance at 480 nm; geometric mean of a minimum of four determinations
Protocol: Example B-1. Cell-Based (HeLa) Assay for Measurement of IDO1 Inhibition
To measure IDO1 inhibition in tissue culture, HeLa cells were treated with a test compound in the presence of IFNγ, which induces IDO1 expression. Following incubation, cell supernatants were assayed for kynurenine levels, an indicator of IDO1 activity.
The following day, the test compounds were added in DMSO (0.5% final) at various concentrations, and IDO1 was inducibly expressed by the addition of 50 uL/well of 50 ng/mL of INFγ (Peprotech #300-02) in cell plating media. As a positive control, 50 uL of the cell plating media without IFNγ was added to several wells. Following a 48 hour incubation, the plates were spun down at 1,200 RPM for 5 min at 10° C. 65 μL/well of the supernatant was then transferred to new 384-well plates (Thermo #262160) that contained 10 uL/well of 30% TCA (Sigma # TO699), and the plates were sealed and incubated at 60° C. for 30 min. The plates were then centrifuged for 15 min at 2,000 RPM at 10° C. 40 μL/well of the supernatant was transferred to new 384-well plates (Thermo #262160) and was reacted with 40 μL/well of 2% (w/v) p-dimethlyaminobenzaldehyde (Sigma #156417) in glacial acetic acid (Sigma #A6283). The reaction was incubated at room temperature for 10 min and absorbance at 480 nm was read using a PerkinElmer Envision plate reader.
Data in Table 1 were normalized based on positive (−IFNγ) and negative (+IFNγ) controls and EC50 values were calculated from the fit of the dose—response curves to a four-parameter equation. All EC50 values represent geometric mean values of a minimum of four determinations. These assays generally produced results within 2-fold of the reported mean

T1 sequence (P14902 whole entry): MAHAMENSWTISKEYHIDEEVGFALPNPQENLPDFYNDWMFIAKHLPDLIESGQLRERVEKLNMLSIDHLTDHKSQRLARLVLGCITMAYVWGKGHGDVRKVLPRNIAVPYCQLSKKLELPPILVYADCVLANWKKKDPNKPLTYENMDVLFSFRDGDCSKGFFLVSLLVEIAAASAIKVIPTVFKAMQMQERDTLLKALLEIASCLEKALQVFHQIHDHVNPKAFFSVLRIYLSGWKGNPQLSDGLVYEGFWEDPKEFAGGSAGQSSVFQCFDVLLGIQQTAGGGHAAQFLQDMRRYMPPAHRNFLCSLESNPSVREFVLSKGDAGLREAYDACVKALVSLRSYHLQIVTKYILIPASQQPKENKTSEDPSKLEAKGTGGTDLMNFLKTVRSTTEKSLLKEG

| Structure (SMILES) | EC50 [nM] |
| --- | --- |
| Cc1ncc(-c2cccc3c2C(C)(C)C(=O)N3c2ccccn2)cc1C(=O)Nc1ccc(F)cc1 [Example 12, 5-(3,3-dimethyl-2-oxo-1-(pyridin-2-yl)indolin-4-yl)-N-(4-fluorophenyl)-2-methylnicotinamide] | 66 |
| CC1(C)C(=O)N(c2c[nH]cn2)c2cccc(-c3ccc(C(F)(F)F)c(C(=O)Nc4ccc(F)cc4)c3)c21 [Example 11, 5-(1-(1H-imidazol-4-yl)-3,3-dimethyl-2-oxoindolin-4-yl)-N-(4-fluorophenyl)-2-(trifluoromethyl)benzamide] | 41 |
| CC1(C)Oc2c(-c3ccc(C(F)(F)F)c(C(=O)Nc4ccc(F)cc4)c3)cccc2N(c2ncccn2)C1=O [Example 54, 5-(2,2-dimethyl-3-oxo-4-(pyrimidin-2-yl)-3,4-dihydro-2H-benzo[b][1,4]oxazin-8-yl)-N-(4-fluorophenyl)-2-(trifluoromethyl)benzamide] | 1340 |
| Cc1ncc(-c2cccc3c2C(C)(C)C(=O)N3c2cccnc2)cc1C(=O)Nc1ccc(F)cc1 [Example 13, 5-(3,3-dimethyl-2-oxo-1-(pyridin-3-yl)indolin-4-yl)-N-(4-fluorophenyl)-2-methylnicotinamide] | 94 |
| CC1(C)C(=O)N(c2ncccn2)c2cccc(-c3cc(C(=O)Nc4ccc(F)cc4)c(C(F)(F)F)cn3)c21 [Example 25, 2-(3,3-dimethyl-2-oxo-1-(pyrimidin-2-yl)indolin-4-yl)-N-(4-fluorophenyl)-5-(trifluoromethyl)isonicotinamide] | 39 |
| CC1(C)C(=O)N(c2ncccn2)c2nccc(-c3ccc(C(F)(F)F)c(C(=O)Nc4ccc(F)c(F)c4)c3)c21 [Example 50, N-(3,4-difluorophenyl)-5-(3,3-dimethyl-2-oxo-1-(pyrimidin-2-yl)-2,3-dihydro-1H-pyrrolo[2,3-b]pyridin-4-yl)-2-(trifluoromethyl)benzamide] | 50 |
| CC1(C)C(=O)N(c2cccnc2)c2cccc(-c3ccc(C(F)(F)F)c(-c4nc5cc(F)ccc5[nH]4)c3)c21 [Example 56, 4-(3-(5-fluoro-1H-benzo[d]imidazol-2-yl)-4-(trifluoromethyl)phenyl)-3,3-dimethyl-1-(pyridin-3-yl)indolin-2-one] | 3030 |
| CC1(C)C(=O)N(c2ncccn2)c2cccc(-c3ccc(C(F)(F)F)c(C(=O)Nc4ccncn4)c3)c21 [Example 48, 5-(3,3-dimethyl-2-oxo-1-(pyrimidin-2-yl)indolin-4-yl)-N-(pyrimidin-4-yl)-2-(trifluoromethyl)benzamide] | 73 |
| CC1(C)C(=O)N(c2ncccn2)c2cccc(-c3ccc(C(F)(F)F)c(C(=O)Nc4ccncc4)c3)c21 [Example 26, 5-(3,3-dimethyl-2-oxo-1-(pyrimidin-2-yl)indolin-4-yl)-N-(pyridin-4-yl)-2-(trifluoromethyl)benzamide] | 44 |
| CC1(C)C(=O)N(c2ncccn2)c2cccc(-c3ccc(C(F)(F)F)c(C(=O)Nc4ccc(F)cc4)n3)c21 [Example 44] | 113 |
| CC1(C)C(=O)N(c2cccnc2)c2nccc(-c3ccc(C(F)(F)F)c(C(=O)Nc4ccc(F)c(F)c4)c3)c21 [Example 32, N-(3,4-difluorophenyl)-5-(3,3-dimethyl-2-oxo-1-(pyridin-3-yl)-2,3-dihydro-1H-pyrrolo[2,3-b]pyridin-4-yl)-2-(trifluoromethyl)benzamide] | 57 |
| O=C(Nc1ccc(F)cc1)c1cc(-c2cccc3c2[nH]c(=O)n3-c2ncccn2)ccc1C(F)(F)F [Example 29, N-(4-fluorophenyl)-5-(2-oxo-1-(pyrimidin-2-yl)-2,3-dihydro-1H-benzo[d]imidazol-4-yl)-2-(trifluoromethyl)benzamide] | 179 |
| CC1(C)Oc2c(-c3ccc(C(F)(F)F)c(C(=O)Nc4ccc(F)cc4)c3)cccc2N(c2cnccn2)C1=O [Example 55, 5-(2,2-dimethyl-3-oxo-4-(pyrazin-2-yl)-3,4-dihydro-2H-benzo[b][1,4]-oxazin-8-yl)-N-(4-fluorophenyl)-2-(trifluoromethyl)benzamide] | 101 |
| CC1(C)C(=O)N(c2ccncn2)c2cccc(-c3cnc(C(F)(F)F)c(C(=O)Nc4ccc(F)c(F)c4)c3)c21 [Example 51, N-(3,4-difluorophenyl)-5-(3,3-dimethyl-2-oxo-1-(pyrimidin-4-yl)indolin-4-yl)-2-(trifluoromethyl)nicotinamide] | 41 |
| CC1(C)C(=O)N(c2cncc(F)c2)c2cccc(-c3cnc(C(F)(F)F)c(C(=O)Nc4ccc(F)cc4)c3)c21 [Example 20, N-(4-fluorophenyl)-5-(1-(5-fluoropyridin-3-yl)-3,3-dimethyl-2-oxoindolin-4-yl)-2-(trifluoromethyl)nicotinamide] | 36 |
| CC1(C)C(=O)N(Cc2ncccn2)c2cccc(-c3ccc(C(F)(F)F)c(C(=O)Nc4ccc(F)cc4)c3)c21 [Example 16, 5-(3,3-dimethyl-2-oxo-1-(pyrimidin-2-ylmethyl)indolin-4-yl)-N-(4-fluorophenyl)-2-(trifluoromethyl)benzamide] | 810 |
| CC1(C)C(=O)N(c2ncccn2)c2cccc(-c3ccc(C(F)(F)F)c(C(=O)Nc4ccnnc4)c3)c21 [Example 46, 5-(3,3-dimethyl-2-oxo-1-(pyrimidin-2-yl)indolin-4-yl)-N-(pyridazin-4-yl)-2-(trifluoromethyl)benzamide] | 283 |
| CC1(C)C(=O)N(c2ccccn2)c2nccc(-c3ccc(C(F)(F)F)c(C(=O)Nc4ccc(F)c(F)c4)c3)c21 [Example 27, N-(3,4-difluorophenyl)-5-(3,3-dimethyl-2-oxo-1-(pyridin-2-yl)-2,3-dihydro-1H-pyrrolo[2,3-b]pyridin-4-yl)-2-(trifluoromethyl)benzamide] | 63 |

Stronger by EC50, values ahead:

| EC50 [nM] | Structure (SMILES) |
| --- | --- |
| 28 | CC1(C)C(=O)N(c2ncccn2)c2cccc(-c3ccc(C(F)(F)F)c(C(=O)Nc4ccccc4)c3)c21 [Example 37, 5-(3,3-dimethyl-2-oxo-1-(pyrimidin-2-yl)indolin-4-yl)-N-phenyl-2-(trifluoromethyl)benzamide] |
| 11 | CC1(C)C(=O)N(c2cnccn2)c2cccc(-c3ccc(C(F)(F)F)c(C(=O)Nc4ccc(F)cc4)c3)c21 [Example 4, 5-(3,3-dimethyl-2-oxo-1-(pyrazin-2-yl)indolin-4-yl)-N-(4-fluorophenyl)-2-(trifluoromethyl)benzamide] |
| 11 | CC1(C)C(=O)N(c2ccncn2)c2cccc(-c3ccc(C(F)(F)F)c(C(=O)Nc4ccc(F)cc4)c3)c21 [Example 3, 5-(3,3-dimethyl-2-oxo-1-(pyrimidin-4-yl)indolin-4-yl)-N-(4-fluorophenyl)-2-(trifluoromethyl)benzamide] |
| 10 | CC1(C)C(=O)N(c2ncccn2)c2cccc(-c3ccc(C(F)(F)F)c(C(=O)Nc4ccc(F)cc4)c3)c21 [Compound 1, 5-(3,3-dimethyl-2-oxo-1-(pyrimidin-2-yl)indolin-4-yl)-N-(4-fluorophenyl)-2-(trifluoromethyl)benzamide] |
| 33 | CC1(C)C(=O)N(c2cccnc2)c2nccc(-c3ccc(C(F)(F)F)c(C(=O)Nc4ccc(C#N)cn4)c3)c21 [Example 19, N-(5-cyanopyridin-2-yl)-5-(3,3-dimethyl-2-oxo-1-(pyridin-3-yl)-2,3-dihydro-1H-pyrrolo[2,3-b]pyridin-4-yl)-2-(trifluoromethyl)benzamide] |
| 13 | CC1(C)C(=O)N(c2ccccn2)c2nccc(-c3ccc(C(F)(F)F)c(C(=O)Nc4ccc(F)cc4)c3)c21 [Example 17, 5-(3,3-dimethyl-2-oxo-1-(pyridin-2-yl)-2,3-dihydro-1H-pyrrolo[2,3-b]pyridin-4-yl)-N-(4-fluorophenyl)-2-(trifluoromethyl)benzamide] |
| 24 | CC1(C)C(=O)N(c2ncccn2)c2cccc(-c3ccc(C(F)(F)F)c(C(=O)Nc4ccc(F)c(F)c4)c3)c21 [Example 30, N-(3,4-difluorophenyl)-5-(3,3-dimethyl-2-oxo-1-(pyrimidin-2-yl)indolin-4-yl)-2-(trifluoromethyl)benzamide] |
| 19 | Cc1ccc(-c2cccc3c2oc(=O)n3-c2cccnc2)cc1C(=O)Nc1ccc(F)cc1 [Example 34, N-(4-fluorophenyl)-2-methyl-5-(2-oxo-3-(pyridin-3-yl)-2,3-dihydrobenzo[d]oxazol-7-yl)benzamide] |
| 24 | CC1(C)C(=O)N(c2ccncc2)c2cccc(-c3ccc(C(F)(F)F)c(C(=O)Nc4ccc(F)cc4)c3)c21 [Example 8, 5-(3,3-dimethyl-2-oxo-1-(pyridin-4-yl)indolin-4-yl)-N-(4-fluorophenyl)-2-(trifluoromethyl)benzamide] |
| 13 | CC1(C)C(=O)N(c2cc[nH]n2)c2cccc(-c3ccc(C(F)(F)F)c(C(=O)Nc4ccc(F)cc4)c3)c21 [Example 5, 5-(3,3-dimethyl-2-oxo-1-(1H-pyrazol-3-yl)indolin-4-yl)-N-(4-fluorophenyl)-2-(trifluoromethyl)benzamide] |
